Consider 5 molecules from publication PMC4029803, “Glutathione-Binding Site of a Bombyx mori Theta-Class Glutathione Transferase” (PLoS ONE, 2014).

Series [1] concerns the target T1, bmGSTT (Bombyx mori, UniProt B0LB14, E66A).
T1 construct: cDNA from larval fat body; primers encode N-terminal MVLKLYYD and C-terminal AANSKL
T1 sequence (B0LB14 1-229 E66A): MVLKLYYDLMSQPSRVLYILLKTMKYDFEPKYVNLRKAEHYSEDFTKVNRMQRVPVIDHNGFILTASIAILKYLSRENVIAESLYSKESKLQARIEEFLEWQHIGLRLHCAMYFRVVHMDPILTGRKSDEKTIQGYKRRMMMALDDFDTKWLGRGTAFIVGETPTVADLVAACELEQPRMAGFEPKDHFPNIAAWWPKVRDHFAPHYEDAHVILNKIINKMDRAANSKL
The series can be described thus: spectrophotometric GST assay, […] nm. The note with it: 5 mM GSH; read-out: bmGSTT mutants / E66A. The series is classed as biochemical.

The target of series [2] is T2, bmGSTT (Bombyx mori, UniProt B0LB14, R107A).
T2 construct: cDNA from larval fat body; primers encode N-terminal MVLKLYYD and C-terminal AANSKL
T2 sequence (B0LB14 1-229 R107A): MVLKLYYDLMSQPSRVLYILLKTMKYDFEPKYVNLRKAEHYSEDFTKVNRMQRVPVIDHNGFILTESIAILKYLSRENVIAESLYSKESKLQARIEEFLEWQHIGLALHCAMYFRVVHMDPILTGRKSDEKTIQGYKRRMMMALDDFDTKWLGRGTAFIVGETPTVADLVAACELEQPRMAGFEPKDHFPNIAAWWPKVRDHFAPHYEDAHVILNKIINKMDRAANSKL
The series can be described thus: spectrophotometric GST assay, […] nm. The series is classed as biochemical. The note with it: 5 mM GSH; read-out: bmGSTT mutants / R107A.

Series [3] deals with T3, bmGSTT (Bombyx mori, UniProt B0LB14, H40A).
T3 construct: cDNA from larval fat body; primers encode N-terminal MVLKLYYD and C-terminal AANSKL
T3 sequence (B0LB14 1-229 H40A): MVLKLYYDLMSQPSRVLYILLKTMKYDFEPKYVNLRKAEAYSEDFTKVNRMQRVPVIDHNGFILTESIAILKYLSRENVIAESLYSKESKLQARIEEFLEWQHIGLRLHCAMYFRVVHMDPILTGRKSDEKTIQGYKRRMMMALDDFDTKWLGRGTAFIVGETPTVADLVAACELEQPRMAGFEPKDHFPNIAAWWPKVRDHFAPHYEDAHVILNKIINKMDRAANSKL
The series can be described thus: spectrophotometric GST assay, […] nm. The series is classed as biochemical. The note with it: 5 mM GSH; read-out: bmGSTT mutants / H40A.

Series [4] has as its target T4, bmGSTT (Bombyx mori, UniProt B0LB14).
T4 construct: cDNA from larval fat body; primers encode N-terminal MVLKLYYD and C-terminal AANSKL
T4 sequence (B0LB14 1-229): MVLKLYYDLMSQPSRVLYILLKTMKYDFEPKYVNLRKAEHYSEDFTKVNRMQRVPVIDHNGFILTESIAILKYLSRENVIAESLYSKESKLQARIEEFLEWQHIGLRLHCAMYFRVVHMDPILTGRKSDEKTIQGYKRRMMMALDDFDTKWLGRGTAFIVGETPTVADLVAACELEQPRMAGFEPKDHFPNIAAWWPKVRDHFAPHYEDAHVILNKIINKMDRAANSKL
The series can be described thus: spectrophotometric GST assay, […] nm. The note with it: 5 mM GSH; Table 1 activity at pH 8; read-out: WT. The class given is biochemical.

Substrate in the series “purified protein”: O=[N+]([O-])c1ccc(CCBr)cc1
The series can be described thus: purified protein. The note with it: 5 mM GSH.

As to `O=[N+]([O-])c1ccc(Cl)c([N+](=O)[O-])c1` [CDNB, 1-chloro-2,4-dinitrobenzene], the Km at bmGSTT [1] amounted to 12000 µM; at bmGSTT [2] it was 960 µM; at bmGSTT [3], 520 µM; on bmGSTT [4], 1500 µM.

B1: bmGSTT (Bombyx mori; H40A) (protein)
chain: MVLKLYYDLMSQPSRVLYILLKTMKYDFEPKYVNLRKAEAYSEDFTKVNRMQRVPVIDHNGFILTESIAILKYLSRENVIAESLYSKESKLQARIEEFLEWQHIGLRLHCAMYFRVVHMDPILTGRKSDEKTIQGYKRRMMMALDDFDTKWLGRGTAFIVGETPTVADLVAACELEQPRMAGFEPKDHFPNIAAWWPKVRDHFAPHYEDAHVILNKIINKMDRAANSKL
In the case of B1, the Km in “purified protein” was 2.3 (0.22) mM.

B2: bmGSTT (Bombyx mori; V54A) (protein)
chain: MVLKLYYDLMSQPSRVLYILLKTMKYDFEPKYVNLRKAEHYSEDFTKVNRMQRAPVIDHNGFILTESIAILKYLSRENVIAESLYSKESKLQARIEEFLEWQHIGLRLHCAMYFRVVHMDPILTGRKSDEKTIQGYKRRMMMALDDFDTKWLGRGTAFIVGETPTVADLVAACELEQPRMAGFEPKDHFPNIAAWWPKVRDHFAPHYEDAHVILNKIINKMDRAANSKL
For the molecule B2, the Km in the series “purified protein” is listed as 0.50 (0.083) mM.

B3: bmGSTT (Bombyx mori; R107A) (protein)
chain: MVLKLYYDLMSQPSRVLYILLKTMKYDFEPKYVNLRKAEHYSEDFTKVNRMQRVPVIDHNGFILTESIAILKYLSRENVIAESLYSKESKLQARIEEFLEWQHIGLALHCAMYFRVVHMDPILTGRKSDEKTIQGYKRRMMMALDDFDTKWLGRGTAFIVGETPTVADLVAACELEQPRMAGFEPKDHFPNIAAWWPKVRDHFAPHYEDAHVILNKIINKMDRAANSKL
For B3, the Km in the series “purified protein” is on record as 0.52 (0.071) mM.

B4: bmGSTT (Bombyx mori) (protein)
chain: MVLKLYYDLMSQPSRVLYILLKTMKYDFEPKYVNLRKAEHYSEDFTKVNRMQRVPVIDHNGFILTESIAILKYLSRENVIAESLYSKESKLQARIEEFLEWQHIGLRLHCAMYFRVVHMDPILTGRKSDEKTIQGYKRRMMMALDDFDTKWLGRGTAFIVGETPTVADLVAACELEQPRMAGFEPKDHFPNIAAWWPKVRDHFAPHYEDAHVILNKIINKMDRAANSKL
For B4, the Km in “purified protein” (Table 1 activity at pH 8) is 0.13 (0.03) mM.
